We go through 24 molecules from US7132437B2, “Renal-selective biphenylalkyl 1H-substituted-1,2,4-triazole angiotensin II antagonists for treatment of hypertension” (G.D. Searle, priority 1990, dated 2006).

pIC50: −log10 of the molar value.

The target in experiment [1] is T1, smooth muscle angiotensin II receptor.
T1 construct: Rat uterine membranes were prepared from fresh tissue
Description: Assay A: Angiotensin II Binding Activity. To be noted: rat uterine membrane preparation, displacement of 125I-AII. The procedure: Assay A: Angiotensin II Binding Activity
Compounds of Formula I were tested for ability to bind to the smooth muscle angiotensin II receptor using a rat uterine membrane preparation. […] Other chemicals were obtained from Sigma Chemical Co. This assay was carried out according to the method of Douglas et al [Endocrinology, 106, 120–124 (1980)]. Rat uterine membranes were prepared from fresh tissue. All procedures were carried out at 4° C. Uteri were stripped of fat and homogenized in phosphate-buffered saline at pH 7.4 containing 5 mM EDTA. The homogenate was centrifuged at 1500×g for 20 min., and the supernatant was recentrifuged at 100,000×g for 60 min. The pellet was resuspended in buffer consisting of 2 mM EDTA and 50 mM Tris-HCl (pH 7.5) to a final protein concentration of 4 mg/ml. […] The reaction was initiated by the addition of membrane protein and the mixture was incubated at 25° C. for 60 min. The incubation was terminated with ice-cold 50 mM Tris-HCl (pH 7.5) and the mixture was filtered to separate membrane-bound labelled peptide from the free ligand. The incubation tube and filter were washed with ice-cold buffer. Filters were assayed for radioactivity in a Micromedic gamma counter. Nonspecific binding was defined as binding in the presence of 10 μM of unlabelled AII. Specific binding was calculated as total binding minus nonspecific binding. […] Binding data were analyzed by a nonlinear least-squares curve fitting program.
(Displacement assays read how much labelled ligand stays bound in the presence of the test substance.)

For a further experiment, the system named is rabbit aortic rings. Put plainly: Assay B: In Vitro Vascular Smooth Muscle Response for AII. The class given is cell-based. To be noted: for Assay B pA2 / Kb: antagonist at 10^-5 M, two values per cell = aorta rings from two rabbits; for Kb: Oryctolagus cuniculus, read-out: Assay B pA2 (converted). On the procedure: Assay B: In Vitro Vascular Smooth Muscle-Response for ATT
Compounds of Formula I were tested for antagonist activity in rabbit aortic rings. Male New Zealand white rabbits (2–2.5 kg) were sacrificed using an overdose of pentobarbital and exsanguinated via the carotid arteries. The thoracic aorta was removed, cleaned of adherent fat and connective tissue and then cut into 3-mm ring segments. The endothelium was removed from the rings by gently sliding a rolled-up piece of filter paper into the vessel lumen. The rings were then mounted in a water-jacketed tissue bath, maintained at 37° C., between moveable and fixed ends of a stainless steel wire with the moveable end attached to an FT03 Grass transducer coupled to a Model 7D Grass Polygraph for recording isometric force responses. The bath was filled with 20 ml of oxygenated (95% oxygen/5% carbon dioxide) Krebs solution of the following composition […]: 130 NaCl, 15 NaHCO3, 15 KCl, 1.2 NaH2PO4, 1.2 MgSO4, 2.5 CaCl2, and 11.4 glucose. The preparations were equilibrated for one hour before approximately one gram of passive tension was placed on the rings. Angiotensin II concentration-response curves were then recorded (3×10^−10 to 1×10–5 M). Each concentration of AII was allowed to elicit its maximal contraction, and then AII was washed out repeatedly for 30 minutes before rechallenging with a higher concentration of AII. Aorta rings were exposed to the test antagonist at 10^−5 M for 5 minutes before challenging with AII. Adjacent segments of the same aorta ring were used for all concentration-response curves in the presence or absence of the test antagonist. The effectiveness of the test compound was expressed in terms of pA2 values and were calculated according to H. O. Schild [Br. J. Pharmacol. Chemother., 2, 189–206 (1947)]. […] Each test antagonist was evaluated in aorta rings from two rabbits.

In general, pIC50 refers to the IC50 on a negative log10 scale, so that one unit is a factor of ten. “1,1-dimethylethyl [3-butyl-[1-2′-(1H-tetrazol-5-yl)[1,1′-biphenyl]-4-ylmethyl]-1H-1,2,4-triazol-5-yl]methylcarbamate [Example 34]”: the negative-log IC50 (pIC50) in experiment [1] was 6.19. Still for that read-out and setting: the figure for `CCCCc1nc(Cl)n(Cc2ccc(-c3ccccc3C(=O)O)cc2)n1` (single isomer, unassigned) [Example 8, 4′-[(3-butyl-5-chloro-1H-1,2,4-triazol-1-yl)methyl][1,1′-biphenyl]-2-carboxylic acid] is 4.77.

For the molecule `CCCCc1ncnn1Cc1ccc(-c2ccccc2C(=O)O)cc1` (single isomer, unassigned) [Example 18, 4′-[(5-butyl-1H-1,2,4-triazol-1-yl)methyl][1,1′-biphenyl]-2-carboxylic acid], the “Assay B pA2” value with rabbit aortic rings worked out at 6.09. Moreover, the pIC50 in experiment [1] was 6.01. The corresponding values for `CCCCc1ncn(Cc2ccc(-c3ccccc3C(=O)O)cc2)n1` (single isomer, unassigned) [Example 19, 4′-[(3-butyl-1H-1,2,4-triazol-1-yl)methyl][1,1′-biphenyl]-2-carboxylic acid] are 5.35 and 4.92.

Turning to `CCCCc1nc(C(OC)OC)nn1Cc1ccc(-c2ccccc2-c2nnn[nH]2)cc1` (single isomer, unassigned) [Example 24], the “Assay B pA2” value in the experiment on rabbit aortic rings came out at 7.73. The molecule further gave a negative-log IC50 (pIC50) in experiment [1] of 8.00. Taken in the same sequence, the figures for `CCCCc1nc(CCc2ccccc2)n(Cc2ccc(-c3ccccc3-c3nnn[nH]3)cc2)n1` (single isomer, unassigned) [Example 25] were 6.73 and 6.32. `CCCCCCCCc1nc(CCCC)n(Cc2ccc(-c3ccccc3-c3nnn[nH]3)cc2)n1` (single isomer, unassigned) [Example 29, 5-[4′-[(5-butyl-3-octyl-1H-1,2,4-triazol-1-yl)methyl][1,1′-biphenyl]-2-yl]-1H-tetrazole]: in experiment [1], the negative-log IC50 (pIC50) is 6.80. The same measure, in the same setting: as for `CCCCc1nc(C)n(Cc2ccc(-c3ccccc3-c3nnn[nH]3)cc2)n1` (single isomer, unassigned) [Example 33, 5-[4′-[(3-butyl-5-methyl-1H-1,2,4-triazol-1-yl)methyl][1,1′-biphenyl]-2-yl]-1H-tetrazole], the figure is 6.20. Regarding `CCCCc1nc(CC(OCC)OCC)n(Cc2ccc(-c3ccccc3-c3nnn[nH]3)cc2)n1` (single isomer, unassigned) [Example 37, 5-[4′-[[3-butyl-5-(2,2-diethyoxyethyl)-1H-1,2,4-triazol-1-yl]methyl][1,1′-biphenyl]-2-yl]-1H-tetrazole], the “Assay B pA2” value with rabbit aortic rings is reported as 6.85. Moreover, the pIC50 in experiment [1] is 6.47.

On to `CCCCc1nc(CC(OCC)OCC)nn1Cc1ccc(-c2ccccc2-c2nnn[nH]2)cc1` (single isomer, unassigned) [Example 38, 5-[4′-[[5-butyl-3-(2,2-diethyoxyethyl)-1H-1,2,4-triazol-1-yl]methyl][1,1′-biphenyl]-2-yl]-1H-tetrazole], for which, in experiment [1], the pIC50 was 8.00. On to `CCCCc1nc(CC)nn1Cc1ccc(-c2ccccc2-c2nnn[nH]2)cc1` (single isomer, unassigned) [Example 39, 5-[4′-[(5-butyl-3-ethyl-1H-1,2,4-triazol-1-yl)methyl][1,1′-biphenyl]-2-yl]-1H-tetrazole], for which, in the experiment on rabbit aortic rings, the “Assay B pA2” value was 7.84. Also, the pIC50 in experiment [1] was 8.00. `CCCCc1nc(CC)n(Cc2ccc(-c3ccccc3-c3nnn[nH]3)cc2)n1` (single isomer, unassigned) [Example 40, 5-[4′-[(3-butyl-5-ethyl-1H-1,2,4-triazol-1-yl)methyl][1,1′-biphenyl]-2-yl]-1H-tetrazole] had a negative-log IC50 (pIC50) in experiment [1] of 7.08. For `CCCCc1nc(CCC2CCCCC2)n(Cc2ccc(-c3ccccc3-c3nnn[nH]3)cc2)n1` (single isomer, unassigned) [Example 42, 5-[4′-[[3-butyl-5-(2-cyclohexylethyl)-1H-1,2,4-triazol-1-yl]methyl][1,1′-biphenyl]-2-yl]-1H-tetrazole], in the experiment with rabbit aortic rings, the “Assay B pA2” value stood at 6.26. This molecule also gave a pIC50 in experiment [1] of 6.43.

In experiment [1], `CCCCc1nc(CCC2CCCCC2)nn1Cc1ccc(-c2ccccc2-c2nnn[nH]2)cc1` (single isomer, unassigned) [Example 43, 5-[4′-[[5-butyl-3-(2-cyclohexylethyl)-1H-1,2,4-triazol-1-yl]methyl][1,1′-biphenyl]-2-yl]-1H-tetrazole] had a pIC50 of 7.72. Regarding `CCCCc1nc(C(F)F)n(Cc2ccc(-c3ccccc3-c3nnn[nH]3)cc2)n1` (single isomer, unassigned) [Example 48, 5-[4′-[[3-butyl-5-(difluoromethyl)-1H-1,2,4-triazol-1-yl]methyl][1,1′-biphenyl]-2-yl]-1H-tetrazole], in experiment [1], the negative-log IC50 (pIC50) was 6.17. As to `CCCCc1nc(CCCC)n(Cc2ccc(-c3ccccc3C(=O)O)cc2)n1` [Example 2, 4′-[(3,5-dibutyl-1H-1,2,4-triazol-1-yl)methyl][1,1′-biphenyl]-2-carboxylic acid], the Kb in the experiment on rabbit aortic rings was 42.7 nM. `CCCCc1nc(C(F)(F)CCC)n(Cc2ccc(-c3ccccc3C(=O)O)cc2)n1` [Example 11, 4′-[[3-butyl-5-(1,1-difluorobutyl)-1H-1,2,4-triazol-1-yl]methyl][1,1′-biphenyl]-2-carboxylic acid] gave a pIC50 in experiment [1] of 6.80. Turning to `CCCCCc1nc(CN)nn1Cc1ccc(-c2ccccc2-c2nnn[nH]2)cc1` [Example 13, 5-[4′-[(3-aminomethyl-5-pentyl-1H-1,2,4-triazol-1-yl)methyl][1,1′-biphenyl]-2-yl]-1H-tetrazole], the Kb in the experiment on rabbit aortic rings is 2 nM. The same measure, in the same setting: the figure for `CCCCc1nc(CCC)nn1Cc1ccc(-c2ccccc2C(=O)O)cc1` [Example 14, 4′-[(5-butyl-3-propyl-1H-1,2,4-triazol-1-yl)methyl]-[1,1′-biphenyl]-2-carboxylic acid] is 1.45 nM.

As for `CCCCc1nc(CCC(C)C)n(Cc2ccc(-c3ccccc3C(=O)O)cc2)n1` [Example 16], the Kb with rabbit aortic rings was 1.12 nM. On to `CCCCc1nc(CNC(C)=O)nn1Cc1ccc(-c2ccccc2-c2nnn[nH]2)cc1` [Example 31, N-[[5-butyl-1-[2′-(1H-tetrazol-5-yl)[1,1′-biphenyl]-4-ylmethyl]-1H-1,2,4-triazol-3-yl]methyl]acetamide], for which the pIC50 in experiment [1] is 7.85. On to `CCCCc1nc(C=O)nn1Cc1ccc(-c2ccccc2-c2nnn[nH]2)cc1` [Example 49, 5-butyl-1-[2′-(1H-tetrazol-5-yl)[1,1′-biphenyl]-4-ylmethyl]-1H-1,2,4-triazole-3-carboxaldehyde], for which the “Assay B pA2” value in the experiment on rabbit aortic rings stood at 7.07. With `CCCCc1nc(C(F)(F)C(F)(F)C(F)(F)F)nn1Cc1ccc(-c2ccccc2-c2nnn[nH]2)cc1` [Example 70, 5-[4′-[[3-(1,1,2,2,3,3,3-heptafluoropropyl)-5-butyl-1H-1,2,4-triazol-1-yl]methyl][1,1′-biphenyl]-2-yl]-1H-tetrazole], the negative-log IC50 (pIC50) in experiment [1] was 7.36. Turning to `CCCCc1nc(CCCN)n(Cc2ccc(-c3ccccc3-c3nnn[nH]3)cc2)n1` [Example 71, 5-[4-[[3-butyl-5-(3-aminopropyl)-1H-1,2,4-triazol-1-yl]methyl][1,1′-biphenyl]-2-yl]-1H-tetrazole], the “Assay B antagonist activity (symbol in pA2 column)” value in the experiment on rabbit aortic rings is reported as “* (Antagonist activity not observed up to 10 μM of test compound.)”.
